Measured values as given in patent US5374621A (Regents of the University of California, priority 1991, dated 1994).

Assays:
[1] = system: heat induced edema in rat paws; test: Heat injury to the skin: paw edema after immersion in 58° C. water; type: in vivo; details: for ED50 (nmol/kg), inhibition of heat-induced edema / ED50 (μg/kg), inhibition of heat-induced edema: % increase in paw water content 30 minutes after heat injury, as % of saline control
Experimental: Peptides, obtained from Peninsula Laboratories or Bachem Laboratories, were dissolved in sterile saline and injected intravenously 10 minutes before exposure to heat.
After removal of the saline-treated animal's paw from 58° C. water, the paw's skin became red, followed by progressive swelling from an initial volume of about 1.5 ml to a net increase of 0.77 ml within 5 minutes.
To compare the potency of the peptides, the following method was used. Thirty minutes after heat injury, rats were killed with an over-dose of concentrated sodium pentobarbital, and both paws cut off at the ankle joint and weighed. All paws were then dried in an oven at 80° C. for 24 hours and re-weighed to obtain % increase in water content as: [formula]
The rat was euthanized 30 minutes later with concentrated pentobarbital and both paws removed by cutting at the ankle joint and weighed. The paws were then dried at 80° C. for 24 hours. Controls received only saline at 0.1 ml/kg i.v. The increase in the water content of the heated paw was calculated as: heated paw (wet wt.--dry wt.)--unheated paw (wet wt.--dry wt.).

[2] = system: substance P; test: Salivary secretion induced by substance P injections; type: in vivo; details: substance P 40 μg/kg s.c., rat
Source text: Thus, a chemical (Such as illustrated by CP-96,345) that antagonizes the inflammatory mediator, substance P, is not sufficient to prevent edema after thermal injury.

[3] = system: epinephrine-induced pulmonary edema; test: Epinephrine-induced pulmonary edema; type: in vivo, rat; details: 10 nmol/kg i.v. 10 minutes before epinephrine bitartrate 10 μg/kg i.v.; lungs 30 minutes after Epi; Saline + Epi 6.2 ± 0.3
Experimental: Male Sprague-Dawley rats weighing 260±9 g (Simonsen Labs, Gilroy, Calif.) were used in all experiments. […] This single dose of Epi is sufficient to produce a non-lethal pulmonary edema in the pentobarbital-anesthetized rat. Thirty minutes after Epi, animals were euthanized with concentrated pentobarbital and the lungs were removed. […] Lungs were blotted on paper towels and weighed (wet wt.), then placed in a 80° C. oven for 24 hour and re-weighed again (dry wt.). The value 1000 (wet wt.-dry wt.)/body wt. was termed the edema index. All data are presented as mean ± SEM. Statistical significance was assessed by analysis of variance (ANOVA) with the Studentized range-test.

[4] = system: vascular leakage from abdominal muscle after celiotomy; test: Skeletal muscle injury (celiotomy): Monastral blue vascular leakage; type: in vivo, rat; details: for Lesion Size (x104): area x intensity; for Area (mm^2) of dye staining: samples 30 minutes after celiotomy
Experimental: (§1) Experiments were conducted on 260±6 (S.D.) male Sprague-Dawley rats from Simonsen Laboratories (Gilroy, Calif.). Animals were injected with sodium pentobarbital, 60 mg/kg i.p. Ten to 15 minutes later, after anesthesia was signaled by loss of the righting reflex and motor responses to tail pinch, Monastral blue B (used to estimate leakage of macromolecules from blood vessels), suspended in saline at 30 mg/ml (Sigma Co., St. Louis, Mo.), was injected 60 mg/kg i.v. at a rate of approximately 0.2 ml/100 g body weight/min into a branch of the femoral vein. Procedures for inducing vascular leakage began three minutes after Monastral blue infusion.
The abdomen was shaved and a 4 cm scalpel cut was made in the midline. After manually parting the skin, an incision of equal length was made in the rectus abdominus and the skin was then pushed together to cover the wound. Thirty minutes after celiotomy, the rat was euthanized with an i.v. overdose of pentobarbital and the skin and muscle surrounding the site of incision were removed and fixed in 10% neutral-buffered formalin (NBF) for at least 2 days before further analysis.
To measure the area of dye distribution and the intensity of dye staining on the surfaces of the tissues, we used an image-processing system (JAVA, Jandel Video Analysis System, Corte Madera, Calif.) in which a video image, composed of pixels with different gray intensities, was subjected to numeric analysis. Samples of the abdominal muscle and brain were placed on a non-reflective coated glass board illuminated by six 60 watt fluorescent bulbs placed 1.65 m above the tissues and the images recorded under these constant conditions, without magnification, on video film. The areas of dye distribution were demarcated with a mouse-pointer device and the average intensity in the defined areas was obtained. To calibrate light intensity on the JAVA system, various concentrations of Monastral blue B (0.0625 to 16 mg/ml) were placed on white filter paper and the intensity scale set from 0 to 255 units. The relationship of light intensity, which is the degree of blueness in arbitrary units, to Monastral blue B concentrations (mg/ml) was: light intensity =124+116 log MB, an equation obtained by linear regression with a correlation coefficient of r= 0.98. The term "lesion size", applied to the area of staining multiplied by its light intensity, represents a two-dimensional measurement of vascular leakage. This assessment was considered adequate because the injuries were to the surfaces of the muscle and cortex and the lesions were not more than a few mm deep. To further characterize the sites of dye leakage from blood vessels, samples of muscle and cortex, cut to approximately 500 μm thickness, were mounted in glycerol gelatin for microscopic examination.
Animals were randomly assigned to treatments using a paired control design with a minimum of 6 rats per group. Data were expressed as the mean ± S.E.M. and the ED50 and 95% confidence limits were estimated by the method of Litchfield and Wilcoxon (1949). The Student's test was used for comparison of groups.

[5] = system: vascular leakage from brain cortex after freeze injury; test: Cerebral cortex freeze injury: Monastral blue vascular leakage; type: in vivo, rat; details: 4 nmol/kg i.v. 10 minutes before freeze injury
Experimental: as §1
This model of vasogenic edema in brain tissues was first described by Chan et al. (1983). Anesthetized rats were mounted on a David Kopf stereotaxic instrument and a 2 to 2.5 cm midline incision made in the shaved scalp. After parting the skin and connective tissue to expose the skull, a 60 mm^2 plate, connected to a brass cup filled with dry ice and acetone and maintained at -50° C., was applied to the skull for four minutes. One hour later, the animal was perfused through the aorta with saline, followed by 10% NBF, and then the brain was removed and stored in 10% NBF for at least two days before further analysis. Sections of membranes covering the cortex were also dissected from the underlying tissues and separately examined.
To measure the area of dye distribution and the intensity of dye staining on the surfaces of the tissues, we used an image-processing system (JAVA, Jandel Video Analysis System, Corte Madera, Calif.) in which a video image, composed of pixels with different gray intensities, was subjected to numeric analysis. Samples of the abdominal muscle and brain were placed on a non-reflective coated glass board illuminated by six 60 watt fluorescent bulbs placed 1.65 m above the tissues and the images recorded under these constant conditions, without magnification, on video film. The areas of dye distribution were demarcated with a mouse-pointer device and the average intensity in the defined areas was obtained. […]

[6] = system: blood pressure; test: Blood pressure (mean arterial pressure) after i.v. injection; type: in vivo; details: 10 nmol/kg i.v.; FIG. 4
Experimental: Blood pressure was monitored of animals to which 10 nmol/kg of different compounds were administered i.v. One administration was of saline as control. […] Blood pressure was monitored at intervals over a thirty minute period after injection.

Kinetensin
ED20, inhibition of heat-induced edema ([1]; i.v. 10 minutes before heat, dose range 200-800 nmol/kg): 420 nmol/kg

COc1ccccc1CN[C@H]1C2CCN(CC2)[C@H]1C(c1ccccc1)c1ccccc1 [CP-96,345, reference compound]
Increase in Water Content of Heated Paw ([1]; 4 mg/kg i.v. 10 minutes before 58° C. water for one minute, 30 minutes later, saline 1117 ± 33, not significantly different): 1057 ± 24 mg | salivary secretion induced by substance P [2]: prevent salivary secretion

xenopsin
ED50 (nmol/kg), inhibition of heat-induced edema ([1]; i.v. 10 minutes before heat): 0.9 nmol/kg | ED50 (μg/kg), inhibition of heat-induced edema ([1]; i.v. 10 minutes before heat): 0.88 µg/kg

N-acetyl-neurotensin (8-13) [AcNT8-13]
Edema Index, 1000 (wet wt.-dry wt.)/body wt. [3]: 4.9 ± 0.2 | Lesion Size (x104) ([4]; 4 nmol/kg i.v. 5 minutes after celiotomy, saline 10.4 ± 0.5): 5.3 ± 0.4 x104 | Intensity of dye staining ([4]; 4 nmol/kg i.v. 5 minutes after celiotomy, saline 137 ± 31): 108 ± 5 | Area (mm^2) of dye staining ([4]; 4 nmol/kg i.v. 5 minutes after celiotomy, saline 758 ± 39): 493 ± 27 mm^2 | Lesion Size (x104) ([4]; 4 nmol/kg i.v. 10 minutes before celiotomy, saline 12.7 ± 0.4): 5.0 ± 0.2 x104 | Intensity of dye staining ([4]; 4 nmol/kg i.v. 10 minutes before celiotomy, saline 149 ± 2): 126 ± 2 | Area (mm^2) of dye staining ([4]; 4 nmol/kg i.v. 10 minutes before celiotomy, saline 852 ± 27): 399 ± 18 mm^2 | ED50 (nmol/kg), inhibition of heat-induced edema ([1]; i.v. 10 minutes before heat): 2.1 nmol/kg | ED50 (μg/kg), inhibition of heat-induced edema ([1]; i.v. 10 minutes before heat): 1.8 µg/kg | Lesion Size (x103) ([5]; area x intensity, saline 5.7 ± 0.2): 2.4 ± 0.3 x103 | Area (mm^2) of dye staining ([5]; brain removed sixty minutes later, saline 38 ± 2): 21 ± 2 mm^2 | Intensity of dye staining ([5]; saline 151 ± 4): 119 ± 4 | hypotensive effect (blood pressure over 30 minutes) [6]: lacked hypotensive effect

LANT-6
swelling after heat injury ([1]; 0.5 mg/kg i.v., control 69±2%, N=6 pairs, P<0.001): 2±1%

neurotensin (8-13) [NT (8-13)]
Edema Index, 1000 (wet wt.-dry wt.)/body wt. [3]: 4.7 ± 0.2 | swelling response (paw volume change) ([1]; FIG. 1, different doses before 58° C. water, paw volume up to 30 minutes): dose-dependent suppression | ED50 (nmol/kg), inhibition of heat-induced edema ([1]; i.v. 10 minutes before heat): 1.9 nmol/kg | ED50 (μg/kg), inhibition of heat-induced edema ([1]; i.v. 10 minutes before heat): 1.6 µg/kg | hypotensive effect (blood pressure over 30 minutes) [6]: lacked hypotensive effect

neuromedin N (IPYIL; Neuromedin N; UniProt P30990 144-148, looked up) [peptide of the neurotensin family]
ED50 (nmol/kg), inhibition of heat-induced edema ([1]; i.v. 10 minutes before heat): 10.0 nmol/kg | ED50 (μg/kg), inhibition of heat-induced edema ([1]; i.v. 10 minutes before heat): 7.5 µg/kg
